Source: PubChem BioAssay (NCI)
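Protocol summary: plate cells (96-well), add compound at 5 concentrations, incubate 48 h, interpolate endpoints linearly. Abbreviation: GI50, concentration required for 50% inhibition of growth. TGI is the concentration that stops growth completely.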

Key:
Experiment in all cases: inhibition of tumour cell growth, NCI panel, 48 h
[1] = system: 786-0 renal
[2] = system: A498 renal
[3] = system: A549 NSCLC
[4] = system: ACHN renal
[5] = system: BT-549 breast
[6] = system: CAKI-1 renal
[7] = system: CCRF-CEM leukemia
[8] = system: COLO 205 colon
[9] = system: DU-145 prostate
[10] = system: EKVX NSCLC
[11] = system: HCC-2998 colon
[12] = system: HCT-116 colon
[13] = system: HCT-15 colon
[14] = system: HL-60(TB) leukemia
[15] = system: HOP-62 NSCLC
[16] = system: HOP-92 NSCLC
[17] = system: HS 578T breast
[18] = system: HT29 colon
[19] = system: IGROV1 ovarian
[20] = system: K-562 leukemia
[21] = system: KM12 colon
[22] = system: LOX IMVI melanoma
[23] = system: M14 melanoma
[24] = system: MALME-3M melanoma
[25] = system: MCF7 breast
[26] = system: MDA-MB-231 breast
[27] = system: MDA-MB-435
[28] = system: MDA-MB-468 breast
[29] = system: MOLT-4 leukemia
[30] = system: NCI-H226 lung
[31] = system: NCI-H23 lung
[32] = system: NCI-H460 lung
[33] = system: NCI-H522 lung
[34] = system: NCI/ADR-RES ovarian
[35] = system: OVCAR-3 ovarian
[36] = system: OVCAR-4 ovarian
[37] = system: OVCAR-5 ovarian
[38] = system: OVCAR-8 ovarian
[39] = system: PC-3 prostate
[40] = system: RPMI-8226 leukemia
[41] = system: RXF 393 renal
[42] = system: SF-268 CNS
[43] = system: SF-295 CNS
[44] = system: SF-539 CNS
[45] = system: SK-MEL-2 melanoma
[46] = system: SK-MEL-28 melanoma
[47] = system: SK-MEL-5 melanoma
[48] = system: SK-OV-3 ovarian
[49] = system: SN12C renal
[50] = system: SNB-19 CNS
[51] = system: SNB-75 CNS
[52] = system: SR leukemia
[53] = system: SW-620 colon
[54] = system: T-47D breast
[55] = system: TK-10 renal
[56] = system: U251 CNS
[57] = system: UACC-257 melanoma
[58] = system: UACC-62 melanoma
[59] = system: UO-31 renal

In the case of `CN(C(=O)c1ccc(C(C)(C)C)cc1)c1sc2c(c1C#N)CCC(=O)C2`, the GI50 [1] is reported as 3.72 µM, the TGI [1] is reported as 13.3 µM and the GI50 [2] is reported as 15.4 µM. The TGI [2] was 29.4 µM, the GI50 [3] was 16.8 µM and the TGI [3] was 35.3 µM. For the same compound, the GI50 [4] was 3.2 µM, the TGI [4] was 10.5 µM and the GI50 [5] was 1.98 µM. For the same compound, the TGI [5] was 4.88 µM, the GI50 [6] was 3.8 µM and the TGI [6] was 17.6 µM. The GI50 [7] was 3.34 µM, the TGI [7] was 10.4 µM and the GI50 [8] was 19.6 µM. It also gave a TGI [8] of 37.2 µM, a GI50 [9] of 16.7 µM and a TGI [9] of 33.4 µM. It also gave a GI50 [10] of 3.49 µM, a TGI [10] of 14 µM and a GI50 [11] of 5.09 µM. For the same compound, the TGI [11] was 16.6 µM, the GI50 [12] was 2.08 µM and the TGI [12] was 4.91 µM. The GI50 [13] was 2.04 µM, the TGI [13] was 4.13 µM and the GI50 [14] was 8.84 µM. The TGI [14] was 30.3 µM, the GI50 [15] was 15.2 µM and the TGI [15] was 32.1 µM. The GI50 [16] was 3.51 µM, the TGI [16] was 15.7 µM and the GI50 [17] was 3.89 µM. For the same compound, the TGI [17] was 28.1 µM, the GI50 [18] was 17.8 µM and the TGI [18] was 41 µM. For the same compound, the GI50 [19] was 11.7 µM, the TGI [19] was 25 µM and the GI50 [20] was 3.17 µM. For the same compound, the TGI [20] was 10.7 µM, the GI50 [21] was 3.97 µM and the TGI [21] was 14.6 µM. The GI50 [22] was 2.11 µM, the TGI [22] was 5.2 µM and the GI50 [23] was 3.57 µM. The TGI [23] was 12.8 µM, the GI50 [24] was 12.6 µM and the TGI [24] was 26.2 µM. It also gave a GI50 [25] of 11.8 µM, a TGI [25] of 32 µM and a GI50 [26] of 2.84 µM. It also gave a TGI [26] of 8.49 µM, a GI50 [27] of 5.8 µM and a TGI [27] of 21.1 µM. It also gave a GI50 [28] of 2.27 µM, a TGI [28] of 5.63 µM and a GI50 [29] of 4.21 µM. The TGI [29] was 23.5 µM, the GI50 [30] was 14.1 µM and the TGI [30] was 38.1 µM. It also gave a GI50 [31] of 2.42 µM, a TGI [31] of 6.56 µM and a GI50 [32] of 13.1 µM. The TGI [32] was 27.5 µM, the GI50 [33] was 1.75 µM and the TGI [33] was 3.45 µM. The GI50 [34] was 2.68 µM, the TGI [34] was 7.44 µM and the GI50 [35] was 2.43 µM. It also gave a TGI [35] of 5.9 µM, a GI50 [36] of 2.64 µM and a TGI [36] of 8.45 µM. The GI50 [37] was 14 µM, the TGI [37] was 27.6 µM and the GI50 [38] was 9.16 µM. For the same compound, the TGI [38] was 39.6 µM, the GI50 [39] was 2.72 µM and the TGI [39] was 8.32 µM. The GI50 [40] was 2.93 µM, the GI50 [41] was 1.96 µM and the TGI [41] was 4.53 µM. For the same compound, the GI50 [42] was 4.79 µM, the TGI [42] was 24.3 µM and the GI50 [43] was 3.45 µM. For the same compound, the TGI [43] was 14 µM, the GI50 [44] was 1.77 µM and the TGI [44] was 3.42 µM. For the same compound, the GI50 [45] was 14.5 µM, the TGI [45] was 28.7 µM and the GI50 [46] was 11.2 µM. For the same compound, the TGI [46] was 23.9 µM, the GI50 [47] was 2.07 µM and the TGI [47] was 4.63 µM. For the same compound, the GI50 [48] was 17.9 µM, the TGI [48] was 34.1 µM and the GI50 [49] was 14 µM. The TGI [49] was 27.2 µM, the GI50 [50] was 3.7 µM and the TGI [50] was 14.7 µM. For the same compound, the GI50 [51] was 6.94 µM, the TGI [51] was 24.4 µM and the GI50 [52] was 2.28 µM. It also gave a TGI [52] of 7.1 µM, a GI50 [53] of 2.06 µM and a TGI [53] of 4.17 µM. It also gave a GI50 [54] of 1.83 µM, a TGI [54] of 4.07 µM and a GI50 [55] of 10.4 µM. The TGI [55] was 23 µM, the GI50 [56] was 1.82 µM and the TGI [56] was 3.9 µM. It also gave a GI50 [57] of 18 µM, a TGI [57] of 33.7 µM and a GI50 [58] of 2.34 µM. The TGI [58] was 6.4 µM, the GI50 [59] was 2.94 µM and the TGI [59] was 11.2 µM.
